Results reported in article PMC9306553 (Angewandte Chemie (International Ed. in English), 2022).

Key:
[1] = target: T1, CCR9 (Homo sapiens, UniProt P51686); assay type: cell-based; conditions: for effect on the CCR9 degradation by 13 (ELISA): co-treatment with 13, HEK293T cells transiently expressing CCR9
T1 sequence (P51686 1-357 isoform P51686-2): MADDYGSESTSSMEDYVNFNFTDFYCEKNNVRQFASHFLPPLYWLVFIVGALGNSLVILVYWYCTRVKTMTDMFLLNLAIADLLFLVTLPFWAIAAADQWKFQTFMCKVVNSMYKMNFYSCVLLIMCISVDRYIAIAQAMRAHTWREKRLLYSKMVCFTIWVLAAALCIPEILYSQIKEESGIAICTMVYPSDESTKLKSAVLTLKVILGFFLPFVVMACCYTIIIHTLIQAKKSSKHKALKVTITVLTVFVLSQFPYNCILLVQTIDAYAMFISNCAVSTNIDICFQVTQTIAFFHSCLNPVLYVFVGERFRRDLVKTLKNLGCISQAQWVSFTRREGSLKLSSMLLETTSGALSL

[2] = target: T1, CCR9; assay: biochemical; assay type: binding; conditions: CCR9_Nluc membranes; for Ki: tracer 3a 100 nM
[3] = target: T1, CCR9; assay: cell-based; conditions: tracer 3a 120 nM, live HEK293T cells expressing CCR9_Nluc
[4] = target: T1, CCR9; assay: cell-based; conditions: HEK293T cells, stimulated with CCL25 31.6 nM
[5] = target: T2, CCR9 (Homo sapiens, UniProt P51686); assay: cell-based; assay type: cell-based; conditions: for IC50: IC50 β-arrestin2 recruitment, HEK293T cells, stimulated with CCL25 31.6 nM
T2 sequence (P51686 1-369): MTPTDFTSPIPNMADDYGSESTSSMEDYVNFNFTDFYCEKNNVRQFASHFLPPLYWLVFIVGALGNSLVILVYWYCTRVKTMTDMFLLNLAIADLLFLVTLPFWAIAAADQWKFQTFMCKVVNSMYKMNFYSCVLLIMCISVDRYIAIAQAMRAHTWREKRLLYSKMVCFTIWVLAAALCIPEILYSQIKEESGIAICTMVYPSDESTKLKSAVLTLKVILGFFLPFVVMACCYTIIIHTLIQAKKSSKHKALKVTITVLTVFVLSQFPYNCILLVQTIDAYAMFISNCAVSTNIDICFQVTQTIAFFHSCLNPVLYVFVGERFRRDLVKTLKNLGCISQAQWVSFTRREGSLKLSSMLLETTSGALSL

[6] = target: T3, CCR2 (Homo sapiens, UniProt P41597); assay: BRET-based G protein activation assay, CCR2; assay type: cell-based; conditions: stimulated with CCL2 10 nM
T3 sequence (P41597 1-360 isoform P41597-2): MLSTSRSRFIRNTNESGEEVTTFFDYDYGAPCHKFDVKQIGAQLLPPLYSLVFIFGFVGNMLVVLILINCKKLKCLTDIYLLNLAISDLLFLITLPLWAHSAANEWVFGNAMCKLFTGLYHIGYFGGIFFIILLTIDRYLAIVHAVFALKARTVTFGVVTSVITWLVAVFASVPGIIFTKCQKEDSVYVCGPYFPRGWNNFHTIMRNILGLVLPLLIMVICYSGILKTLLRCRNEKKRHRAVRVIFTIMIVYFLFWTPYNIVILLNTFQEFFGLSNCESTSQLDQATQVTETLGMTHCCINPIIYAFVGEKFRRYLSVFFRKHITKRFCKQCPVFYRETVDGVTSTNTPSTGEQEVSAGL

[7] = pKi NanoBRET (membranes), mean±SEM
[8] = pKi NanoBRET (in cells), mean±SEM

Molecule | effect on the CCR9 degradation by 13 (ELISA) [1] | Ki ([2]; Ki NanoBRET (membranes)) | Ki [2, 7] | Ki ([3]; Ki NanoBRET (in cells)) | Ki [3, 8] | IC50 ([4]; IC50 Gαo activation) | IC50 ([4]; pIC50 Gαo activation, mean±SEM) | IC50 [5] | other results
Cc1ncsc1-c1ccc(CNC(=O)[C@@H]2C[C@@H](O)CN2C(=O)[C@@H](N)C(C)(C)C)cc1 [(S,R,S)‐AHPC] | can be counteracted | – | – | – | – | – | – | – | effect on CCR9 levels (ELISA) ([1]; HEK293T cells transiently expressing CCR9, 14 h treatment): did not result in reduction of CCR9 levels
NS(=O)(=O)OC[C@@H]1C[C@@H](n2ccc3c(N[C@H]4CCc5ccccc54)ncnc32)C[C@@H]1O [MLN4924] | can be reduced | – | – | – | – | – | – | – | –
CC(C)(C)c1ccc(S(=O)(=O)Nc2ccc(Cl)cc2-c2nccnc2N)cc1 [compound 10] | – | 3.51 nM | 3.24 nM | 11.5 nM | 10.5 nM | 14.9 nM | 14.8 nM | 17.4 nM | –
CC(C)(C)c1ccc(S(=O)(=O)Nc2ccc(Cl)cc2-c2cccnc2N)cc1 [compound 11] | – | 13 nM | 12.3 nM | 20.5 nM | 19.1 nM | 256 nM | 257 nM | 166 nM | –
CC(C)(C)c1ccc(S(=O)(=O)Nc2ccc(Cl)cc2-c2cncnc2N)cc1 [compound 12] | – | – | – | – | – | – | – | – | increase in potency compared to 1, β-arrestin recruitment ([5]; 12 versus 1): ≈ 10 fold; inhibition of CCR2 (G protein activation) [6]: no inhibition
CCL25: orthosteric CCR9 agonist (protein, UniProt O15444 24-150, looked up) C-C motif chemokine 25: QGVFEDCCLAYHYPIGWAVLRRAWTYRIQEVSGSCNLPAAIFYLPKRHRKVCGNPKSREVQRAMKLLDARNKVFAKLHHNTQTFQAGPHAVKKLSSGNSKLSSSKFSNPISSSKRNVSLLISANSGL | – | – | – | – | – | – | – | – | effect on the binding of 3a to the IABS ([2]; 3a 100 nM, prevented binding and displacement setup): did not affect the binding
